Measured values as given in patent US9221814B2, “Heterocyclic guanidine F1F0-atpase inhibitors and therapeutic uses thereof” (Lycera Corporation, priority 2012, dated 2015).
pEC50, pIC50: −log10 of the molar value. Where two headings read alike, the source gives them in different places.

Key:
F1F0-ATPase = target: T1, F1F0-ATPase (Bos taurus, UniProt P13621); experiment: Inhibition of F1F0-ATPase activity in synthesizing ATP (ATP synthesis inhibition); type: biochemical; settings: detection limit IC50=16 μM, read-out: ATP Syn IC50
T1 construct: from tissue
Description: (§1) Exemplary compounds described in above Examples were tested for activity against F1F0-ATPase by measuring the ability of the compounds to inhibit ATP synthesis. In addition, the compounds were assessed for cytotoxicity in Ramos cells. Inhibition of F1F0-ATPase activity in synthesizing ATP and cytotoxicity in Ramos cells were measured according to the procedures described in K. M. Johnson et al. Chemistry & Biology 2005, 12, 485-496.

Ramos cells = experiment: Cytotoxicity in Ramos cells; type: cell-based; settings: detection limit EC50=16 μM, read-out: Ramos Cell EC50
Description: as §1

SMILES	pIC50 (F1F0-ATPase)	pEC50 (Ramos cells)	pEC50 (Ramos cells; Homo sapiens)
Cn1cc(C(=O)/N=C(\Nc2cc(F)cc(Cl)c2)Nc2cc(-c3ccc(O)cc3F)n[nH]2)c(C(F)(F)F)n1 [Compound A-5]	> 5.30	> 5.30	–
Cn1cc(C(=O)/N=C(/Nc2cc(-c3ccc(O)cc3F)n[nH]2)Nc2ccccc2F)c(C(F)(F)F)n1 [Compound 1, N-(((3-(2-Fluoro-4-hydroxyphenyl)-1H-pyrazol-5-yl)amino)((2-fluorophenyl)amino)methylene)-1-methyl-3-(trifluoromethyl)-1H-pyrazole-4-carboxamide]	4.80 to 5.30	–	> 5.30
Cn1cc(C(=O)/N=C(/Nc2cccc(F)c2)Nc2cc(-c3ccc(O)c(F)c3)n[nH]2)c(C(F)(F)F)n1 [Compound A-166]	> 5.30	> 5.30	–
COc1ccc(-c2cc(N/C(=N\C(=O)c3cn(C)nc3C(F)(F)F)Nc3ccc(F)cc3F)[nH]n2)cc1F [Compound A-161]	> 5.30	< 4.80	–
Cn1cc(C(=O)/N=C(/Nc2ccc(C(C)(C)C)cc2)Nc2cc(-c3ccc(O)c(F)c3)n[nH]2)c(C(F)(F)F)n1 [Compound A-165]	> 5.30	> 5.30	–
CCOCCN/C(=N\C(=O)c1cn(C)nc1C(F)(F)F)Nc1cc(-c2cc(F)cc(F)c2)n[nH]1 [Compound A-30]	> 5.30	> 5.30	–
COCC(C)NC(=NC(=O)c1cc(C)nn1C)Nc1cc(-c2ccc(Cl)cc2)n[nH]1 (centres unmarked) [Compound A-67]	> 5.30	–	4.80 to 5.30
Cc1cc(C(=O)/N=C(/NCC(C)C)Nc2cc(-c3ccc(Cl)cc3)n[nH]2)n(C)n1 [Compound A-66]	> 5.30	> 5.30	–
CCOC(=O)NC1CCC(N/C(=N/C(=O)c2cn(C)nc2C(F)(F)F)Nc2cc(F)cc(Cl)c2)CC1 (centres unmarked) [Compound A-219]	4.80 to 5.30	–	4.80 to 5.30
CC(C)CN/C(=N/C(=O)c1cn(C)nc1C(F)(F)F)Nc1cc(-c2cc(O)ccc2F)n[nH]1 [Compound A-179]	> 5.30	< 4.80	–
O=C(N=C(Nc1cc(F)cc(Cl)c1)Nc1cc(C(F)(F)F)n[nH]1)c1nccs1 [Compound A-34]	> 5.30	–	> 5.30
CCOC(=O)NC1CCC(N/C(=N\C(=O)c2cc(C)oc2C(F)(F)F)Nc2cc(F)cc(Cl)c2)CC1 (centres unmarked) [Compound A-127]	> 5.30	–	> 5.30
CC(C)N/C(=N/C(=O)c1cc(C(C)(C)C)nn1C)Nc1cc(-c2ccc(Cl)cc2)n[nH]1 [Compound A-71]	4.80 to 5.30	> 5.30	–
CCn1ccc(C(=O)/N=C(\Nc2cc(-c3ccc(F)cc3)n[nH]2)NC(C)C)n1 [Compound A-62]	< 4.80	< 4.80	–
Cn1cc(C(=O)/N=C(/Nc2cc(F)cc(Cl)c2)Nc2cc(-c3cc(O)ccc3Cl)n[nH]2)c(C(F)(F)F)n1 [Compound A-183]	> 5.30	4.80 to 5.30	–
Cn1cc(C(=O)N=C(Nc2cc(-c3ccc(O)cc3F)n[nH]2)Nc2ccc(F)cc2F)c(C(F)(F)F)n1 [Compound A-4]	4.80 to 5.30	–	> 5.30
Cn1nc(C(C)(C)C)cc1C(=O)N/C(=N/c1cccc(O)n1)Nc1cc(F)cc(Cl)c1 [Compound A-235]	> 5.30	–	> 5.30
CCOC(=O)NC1CCCC(N/C(=N\C(=O)c2cc(C)oc2C(F)(F)F)Nc2cccc(F)c2)C1 (centres unmarked) [Compound 2, Ethyl (3-(3-(3-fluorophenyl)-2-(5-methyl-2-(trifluoromethyl)furan-3-carbonyl)guanidino)cyclohexyl)carbamate]	< 4.80	–	4.80 to 5.30
CCOC(=O)NC1CCC(N/C(=N/C(=O)c2cn(C)nc2C(F)(F)F)Nc2cc(F)cc(F)c2)CC1 (centres unmarked) [Compound A-217]	< 4.80	–	< 4.80
Cc1cc(C(=O)/N=C(\Nc2cc(-c3ccc(F)cc3)n[nH]2)NC(C)(C)C)c(C)o1 [Compound A-190]	> 5.30	4.80 to 5.30	–
CCOCCCN/C(=N/C(=O)c1cnoc1C)Nc1cc(-c2ccc(C)c(F)c2)n[nH]1 [Compound A-106]	4.80 to 5.30	< 4.80	–
COC[C@H](C)N/C(=N/C(=O)c1cc(C)nn1C)Nc1cc(-c2cc(F)cc(F)c2)[nH]n1 [Compound A-84]	4.80 to 5.30	< 4.80	–
Cc1nnsc1C(=O)/N=C(\Nc1cc(-c2ccc(F)cc2)[nH]n1)NC1CCCC1 [Compound A-122]	< 4.80	< 4.80	–
Cn1cc(C(=O)/N=C(/Nc2cc(-c3cc(F)cc(F)c3)n[nH]2)NC(C)(C)C)c(C(F)(F)F)n1 [Compound A-25]	> 5.30	> 5.30	–
Cc1oncc1C(=O)/N=C(\Nc1cc(-c2cc(F)cc(Cl)c2)n[nH]1)NC1CCC1 [Compound A-102]	> 5.30	> 5.30	–
Cn1cc(C(=O)/N=C(\Nc2cc(-c3cc(O)ccc3F)n[nH]2)NC(C)(C)C)c(C(F)(F)F)n1 [Compound A-178]	4.80 to 5.30	4.80 to 5.30	–
Cc1oncc1C(=O)/N=C(\Nc1cc(-c2cc(F)cc(F)c2)n[nH]1)NC(C)C [Compound A-77]	4.80 to 5.30	< 4.80	–
Cn1cc(C(=O)/N=C(/Nc2cc(-c3ccc(O)cc3F)n[nH]2)Nc2ccccc2Cl)c(C(F)(F)F)n1 [Compound A-3]	4.80 to 5.30	> 5.30	–

SMILES	pIC50 (F1F0-ATPase)	pEC50 (Ramos cells)	pEC50 (Ramos cells; Homo sapiens)
CCC(C)N/C(=N/C(=O)c1nc(C)oc1C)Nc1cc(-c2ccc(F)cc2)n[nH]1 (centres unmarked) [Compound A-196]	4.80 to 5.30	> 5.30	–
Cc1nn(C)cc1C(=O)/N=C(\Nc1cc(F)cc(Cl)c1)Nc1cc(-c2ccc(O)cc2F)n[nH]1 [Compound A-2]	4.80 to 5.30	< 4.80	–
Cn1cc(C(=O)/N=C(/Nc2cc(-c3cc(F)cc(F)c3)n[nH]2)NC2CCC2)c(C(F)(F)F)n1 [Compound A-28]	> 5.30	> 5.30	–
Cc1ccc(-c2cc(N/C(=N\C(=O)c3cnoc3C)NC(C)(C)C)[nH]n2)cc1F [Compound A-93]	> 5.30	> 5.30	–
COC[C@H](C)N/C(=N/C(=O)c1cc(C)oc1C(F)(F)F)Nc1cc(-c2cc(F)cc(F)c2)n[nH]1 [Compound A-118]	> 5.30	4.80 to 5.30	–
CCC(C)N/C(=N/C(=O)c1cnoc1C)Nc1cc(-c2cc(F)cc(Cl)c2)n[nH]1 (centres unmarked) [Compound A-101]	> 5.30	> 5.30	–
Cn1cc(C(=O)/N=C(\Nc2cc(-c3ccc(O)c(F)c3)n[nH]2)Nc2ccc(F)cc2Cl)c(C(F)(F)F)n1 [Compound A-153]	> 5.30	> 5.30	–
Cn1cc(C(=O)/N=C(/Nc2cccc(F)c2)Nc2cc(-c3ccc(O)cc3F)[nH]n2)c(C(F)(F)F)n1 [Compound A-139]	> 5.30	> 5.30	–
Cn1cc(C(=O)/N=C(\NCC(C)(C)C)Nc2cc(-c3cc(F)cc(F)c3)n[nH]2)c(C(F)(F)F)n1 [Compound A-31]	> 5.30	> 5.30	–
Cc1oncc1C(=O)/N=C(/NCC(C)C)Nc1cc(-c2cc(F)cc(F)c2)n[nH]1 [Compound A-79]	< 4.80	< 4.80	–
O=C(/N=C(/Nc1cc(F)cc(Cl)c1)Nc1cc(C(F)(F)F)n[nH]1)c1ccc(Cl)s1 [Compound A-210]	> 5.30	> 5.30	–
Cc1cc(N/C(=N\C(=O)c2cc(C)oc2C(F)(F)F)NC(C)C)n[nH]1 [Compound A-112]	< 4.80	< 4.80	–
COc1ccc(F)c(-c2cc(N/C(=N\C(=O)c3cn(C)nc3C(F)(F)F)NC(C)(C)C)n[nH]2)c1 [Compound A-145]	4.80 to 5.30	4.80 to 5.30	–
Cn1cc(C(=O)/N=C(\Nc2cc(-c3ccc(O)c(F)c3)[nH]n2)NC2CCCC2)c(C(F)(F)F)n1 [Compound A-134]	4.80 to 5.30	< 4.80	–
COc1ccc(-c2cc(N/C(=N\C(=O)c3cn(C)nc3C(F)(F)F)Nc3ccc(F)cc3)[nH]n2)cc1F [Compound A-156]	> 5.30	< 4.80	–
Cn1nc(C(C)(C)C)cc1C(=O)/N=C(\Nc1cc(-c2ccc(Cl)cc2)n[nH]1)NC(C)(C)C [Compound A-72]	> 5.30	> 5.30	–
Cc1ccc(Cl)cc1N/C(=N/C(=O)c1cn(C)nc1C(F)(F)F)Nc1cc(-c2ccc(O)c(F)c2)n[nH]1 [Compound A-186]	4.80 to 5.30	< 4.80	–
COc1ccc(-c2cc(N/C(=N\C(=O)c3cn(C)nc3C(F)(F)F)Nc3cc(F)cc(Cl)c3)n[nH]2)cc1F [Compound A-131]	> 5.30	< 4.80	–
COc1ccc(-c2cc(NC(=NC(=O)c3cn(C)nc3C(F)(F)F)Nc3ccc(F)c(Cl)c3)[nH]n2)cc1F [Compound A-155]	> 5.30	–	< 4.80
Cc1cc(C(=O)N=C(Nc2cc(-c3ccc(Cl)cc3)n[nH]2)NC(C)C)n(C)n1 [Compound A-64]	> 5.30	–	4.80 to 5.30
Cc1cc(C(=O)/N=C(/Nc2cc(F)cc(Cl)c2)Nc2cc(C(F)(F)F)nn2C)on1 [Compound A-228]	> 5.30	–	> 5.30
Cc1oncc1C(=O)/N=C(\Nc1cc(-c2cc(F)cc(Cl)c2)n[nH]1)NC(C)(C)C [Compound A-96]	> 5.30	> 5.30	–
COC[C@H](C)N/C(=N/C(=O)c1cn(C)nc1C(F)(F)F)Nc1cc(-c2ccc(OC)c(F)c2)n[nH]1 [Compound A-132]	4.80 to 5.30	4.80 to 5.30	–
CC(C)N/C(=N/C(=O)c1cn(C)nc1C(F)(F)F)Nc1cc(-c2ccc(O)cc2F)n[nH]1 [Compound A-149]	< 4.80	< 4.80	–
COC[C@H](C)N/C(=N/C(=O)c1cn(C)nc1C(F)(F)F)Nc1cc(-c2ccc(O)cc2F)n[nH]1 [Compound A-140]	< 4.80	< 4.80	–
Cc1cc(C(=O)/N=C(\Nc2cc(-c3cc(F)cc(F)c3)[nH]n2)NC(C)(C)C)c(C(F)(F)F)o1 [Compound A-114]	4.80 to 5.30	4.80 to 5.30	–
CC(C)N/C(=N/C(=O)c1cc(C(C)C)no1)Nc1cc(-c2ccc(F)cc2)n[nH]1 [Compound A-63]	> 5.30	4.80 to 5.30	–
